# “Also recorded” adds a separate entry of the source. Read-outs that look alike come from different tables or passages of the source.
# Assays:
# Format in all cases: cell-based, human
# [1] = test system: WI-38 normal lung fibroblast cell line; experiment: MTT cell proliferation assay; conditions: for IC50: normal cell line, MTT, mean ± SEM
# Protocol: (§1) Four cancerous cell lines (human triple negative breast cancer cell line MDA-MB-231, human cervical cancer cell line HeLa, human prostate cancer cell line PC3, and human liver cancer cell line HepG2) and the human normal lung fibroblast cell line, WI-38, were obtained from the central cell repository of National Centre for Cell Science (NCCS), Pune. The cell lines were cultured in a T25 flask with Dulbecco's modified Eagle medium (DMEM), supplemented with 10% foetal bovine serum, nonessential amino acids, 1 mM sodium pyruvate, 2 mM L-glutamine, 100 mg/L streptomycin, […] penicillin, and 50 mg/L gentamycin in a 37°C humidified incubator containing 5% CO2. […] As DMSO has been used to prepare the different concentrations of the compounds, we have added 0.5% DMSO in the control setup. After the incubation period, media was discarded from the 96-well plates and washed with 1 × PBS solution twice. Then, MTT (100 µL; 0.5 mg/mL) was added to each well and incubated in a humidified incubator containing 5% CO2 at 37°C for 4 h. After discarding the supernatant, the purple-colored formazan crystals formed in the wells were dissolved with 100 μL DMSO per well and the absorbance was estimated at 490 nm using a microplate reader. The experiments were repeated three times, and the cell viability was expressed as a percentage of the control experimental setup. […] For all the MTT assays, three fully independent experiments have been performed, and each experiment has been conducted with biological triplicate samples.
# PC3 = experiment: MTT cell proliferation assay; conditions: for IC50: MTT, mean ± SEM
# Protocol: as §1
# HepG2 = experiment: MTT cell proliferation assay; conditions: for IC50: MTT, mean ± SEM
# Protocol: as §1
# HeLa = experiment: MTT cell proliferation assay; conditions: 24 h; for IC50: MTT, mean ± SEM
# Protocol: as §1
# MDA-MB-231 = experiment: MTT cell proliferation assay; conditions: for IC50: MTT, mean ± SEM, read-out: IC50 MDA-MB231
# Protocol: as §1
# MDA-MB-231 cells [2] = experiment: Annexin V-FITC/PI staining apoptosis assay (flow cytometry); conditions: for annexin-V-FITC+/PI− (early apoptotic) and annexin V-FITC+/PI+ (late apoptotic) cell population: control 0.01%
# Protocol: Induction of apoptosis was quantified via flow cytometric analysis of control ([…]) and cells treated with complex 3 (0.25 µM, 0.5 µM, and 1 µM) that were stained with annexin V-FITC/PI [50], using the Annexin V-FITC apoptosis detection kit according to the manufacturer's protocol (BD Bioscience). Post treatment cells were harvested with 1 × trypsin and washed in ice 1 × PBS followed by resuspension in 100 µL of 1 × binding buffer solution supplied within the kit. Finally, cells were incubated with 5 μL of annexin V-FITC and 5 μL of PI for 15 min at room temperature in the dark before acquiring data using BD FACSVerse flow cytometer (BD Biosciences, San Jose, CA). Annexin V/FITC positive cells were regarded as apoptotic cells analyzed using Cell Quest software (BD Biosciences).
# MDA-MB-231 cells [3] = experiment: Cellular ROS measurement using DCFDA (fluorescence microscopy and flow cytometry)
# Protocol: To measure the production of intercellular reactive oxygen species (ROS) produced by treatment with complex 3, the DCFDA method was used. MDA-MB-231 cells were seeded in a 6-well plate and treated with complex 3 (0.25 µM, 0.5 µM, and 1 µM) for 24 h using arsenic as a positive control agent and NAC as negative control. Post treatment, the media was discarded and incubated with 10 µM H2DCFDA for 30 min at 37°C. For fluorescence imaging, cells incubated with H2DCFDA were washed, resuspended in 1 × PBS, and directly imaged under a fluorescence microscope (Leica). For flow cytometric analysis, cells were then trypsinized, washed with 1 × PBS, and collected in centrifuge tubes. DCF fluorescence was measured using BD FACSVerse flow cytometer (BD Biosciences) and analyzed using Cell Quest software (BD Biosciences).
# MDA-MB-231 cells [4] = experiment: Cell cycle profiling by propidium iodide staining (flow cytometry); conditions: 1.0 µM, 24 h, mean ± SEM
# Protocol: MDA-MB-231 cells were seeded at a density of 1 × 10^6 cells/mL in each Petri dish for 24 h. Thereafter, the cells were treated with increasing concentration of complex 3 (0.25 µM, 0.5 µM, and 1 µM) for 24 h and 0.5% DMSO was added in the control setup. Post treatment, cells were harvested into single cell suspension and fixed by 75% ethanol for 24 h. at −20°C. After centrifugation, the cells pellets were resuspended in 1 × PBS followed by RNaseA (20 μM) treatment for 2 h at 37°C. Finally, propidium iodide was added and incubated at room temperature for 20 min. Subsequently, the samples were measured using BD FACSVerse flow cytometer (BD Biosciences, San Jose, CA) and analyzed using BD FACS DIVA software.
# MDA-MB-231 cells [5] = experiment: Mitochondrial membrane potential by JC1 staining (fluorescence microscopy and flow cytometry); conditions: for cellular population with increase in JC1 green fluorescence intensity (flow cytometry): control 3.93%
# Protocol: The changes in mitochondrial membrane permeability were determined by JC1 (molecular probes). MDA-MB-231 cells were treated with compound 3 (0.25 µM, 0.5 µM, and 1 µM) for the indicated time period, harvested, washed twice in 1 × PBS, resuspended in PBS supplemented with JC1 dye (3 µM final concentration), and incubated for 15 min in the dark at 37°C and flow cytometric analysis was immediately performed using a FACSVerse instrument (BD) or images were captured with fluorescent microscope (Leica).
smiles,measurement,setting,value
"CC1=[N+]2N=C(N)[S][Sn-2]23([c]2ccccc2)([c]2ccccc2)[O]C(c2ccncc2)=N[N+]3=C1C [complex 3, [SnPh2L^1]n]",Percentage of cell viability WI-38,"[1]; 0.25 µM, 24 h",98.36%
same,Percentage of cell viability WI-38,"[1]; 0.5 µM, 24 h",95.32%
same,Percentage of cell viability WI-38,"[1]; 1 µM, 24 h",80.17%
same,Percentage of cell viability WI-38,"[1]; 2 µM, 24 h",76.21%
same,Percentage of cell viability WI-38,"[1]; 5 µM, 24 h",70.24%
same,IC50,[1]; 24 h,15.7 ± 0.28 µM
same,Percentage of cell viability PC3,"PC3; 0.25 µM, 24 h",82.17%
same,Percentage of cell viability PC3,"PC3; 0.5 µM, 24 h",76.09%
same,Percentage of cell viability PC3,"PC3; 1 µM, 24 h",60.16%
same,Percentage of cell viability PC3,"PC3; 2 µM, 24 h",48.24%
same,Percentage of cell viability PC3,"PC3; 5 µM, 24 h",35.73%
same,IC50,PC3; 24 h,1.97 ± 0.24 µM
same,Percentage of cell viability HepG2,"HepG2; 0.25 µM, 24 h",80.36%
same,Percentage of cell viability HepG2,"HepG2; 0.5 µM, 24 h",70.36%
same,Percentage of cell viability HepG2,"HepG2; 1 µM, 24 h",58.39%
same,Percentage of cell viability HepG2,"HepG2; 2 µM, 24 h",45.27%
same,Percentage of cell viability HepG2,"HepG2; 5 µM, 24 h",30.68%
same,IC50,HepG2; 24 h,1.59 ± 0.17 µM
same,Percentage of cell viability Hela,HeLa; 0.25 µM,70%
same,Percentage of cell viability Hela,HeLa; 0.5 µM,46.24%
same,Percentage of cell viability Hela,HeLa; 1 µM,30.21%
same,Percentage of cell viability Hela,HeLa; 2 µM,25.19%
same,Percentage of cell viability Hela,HeLa; 5 µM,20.16%
same,Percentage of cell viability MDA-MB 231,"MDA-MB-231; 0.25 µM, 24 h",65.43%
same,Percentage of cell viability MDA-MB 231,"MDA-MB-231; 0.5 µM, 24 h",50.06%
same,Percentage of cell viability MDA-MB 231,"MDA-MB-231; 1 µM, 24 h",28.63%
same,Percentage of cell viability MDA-MB 231,"MDA-MB-231; 2 µM, 24 h",20.19%
same,Percentage of cell viability MDA-MB 231,"MDA-MB-231; 5 µM, 24 h",18.37%
same,IC50,MDA-MB-231; 24 h,0.51 ± 0.13 µM
same,early apoptotic cell population (LR quadrant),"MDA-MB-231 cells [2]; 0.25 µM, 24 h",15.99%
same,late apoptotic cell population (UR quadrant),"MDA-MB-231 cells [2]; 0.25 µM, 24 h",5.24%
same,annexin-V-FITC+/PI− (early apoptotic) and annexin V-FITC+/PI+ (late apoptotic) cell population,"MDA-MB-231 cells [2]; 0.25 µM, 24 h",21.23%
same,early apoptotic cell population (LR quadrant),"MDA-MB-231 cells [2]; 0.5 µM, 24 h",36.25%
same,late apoptotic cell population (UR quadrant),"MDA-MB-231 cells [2]; 0.5 µM, 24 h",21.56%
same,annexin-V-FITC+/PI− (early apoptotic) and annexin V-FITC+/PI+ (late apoptotic) cell population,"MDA-MB-231 cells [2]; 0.5 µM, 24 h",57.81%
same,early apoptotic cell population (LR quadrant),"MDA-MB-231 cells [2]; 1 µM, 24 h",32.32%
same,late apoptotic cell population (UR quadrant),"MDA-MB-231 cells [2]; 1 µM, 24 h",34.15%
same,annexin-V-FITC+/PI− (early apoptotic) and annexin V-FITC+/PI+ (late apoptotic) cell population,"MDA-MB-231 cells [2]; 1 µM, 24 h",66.47%
same,necrotic cell population zone,"MDA-MB-231 cells [2]; 0.25, 0.5 and 1 µM, 24 h",No significant cell population
same,"mean fluorescence intensity (MFI), fold change in comparison with the control (H2DCFDA, flow cytometry)","MDA-MB-231 cells [3]; 0.25 µM, 24 h",1.47 ± 0.17 fold
same,"mean fluorescence intensity (MFI), fold change in comparison with the control (H2DCFDA, flow cytometry)","MDA-MB-231 cells [3]; 0.5 µM, 24 h",2.58 ± 0.23 fold
same,ROS generation / MFI in cells pretreated with N-acetylcysteine (NAC),"MDA-MB-231 cells [3]; 1 µM, 10 mM NAC pretreatment, compared to complex 3 alone",reduce the generation of ROS; also recorded: decrease in the MFI value
same,"fold increase in fluorescence intensity in comparison to control (H2DCFDA, fluorescence microscopy)","MDA-MB-231 cells [3]; 1 µM, 24 h",3.57 ± 0.08 fold
same,"mean fluorescence intensity (MFI), fold change in comparison with the control (H2DCFDA, flow cytometry)","MDA-MB-231 cells [3]; 1 µM, 24 h",4.73 ± 0.14 fold
same,G2/M cell population (G2/M arrest),MDA-MB-231 cells [4],56.07%
same,JC1 aggregate/JC1 monomer fluorescence intensity ratio (fluorescence microscopy),"MDA-MB-231 cells [5]; 0.25 µM, 24 h",1.36 ± 0.78
same,cellular population with increase in JC1 green fluorescence intensity (flow cytometry),"MDA-MB-231 cells [5]; 0.25 µM, 24 h",37.47%
same,cellular population with increase in JC1 green fluorescence intensity (flow cytometry),"MDA-MB-231 cells [5]; 0.5 µM, 24 h",52.22%
same,JC1 aggregate/JC1 monomer fluorescence intensity ratio (fluorescence microscopy),"MDA-MB-231 cells [5]; 1 µM, 24 h",0.27 ± 0.13
same,cellular population with increase in JC1 green fluorescence intensity (flow cytometry),"MDA-MB-231 cells [5]; 1 µM, 24 h",74.51%
"N.N.[Cl][Pt][Cl] [Cisplatin, cisplatin, reference compound]",IC50,[1]; 24 h,20.6 ± 1.52 µM
same,IC50,PC3; 24 h,5.36 ± 1.24 µM
same,IC50,HepG2; 24 h,11.5 ± 2.06 µM
same,IC50,HeLa,3.26 ± 0.23 µM
same,IC50,MDA-MB-231; 24 h,8.25 ± 1.64 µM
same,early apoptotic cell population (LR quadrant),"MDA-MB-231 cells [2]; 8 µM, positive control",44.46%
same,late apoptotic cell population (UR quadrant),"MDA-MB-231 cells [2]; 8 µM, positive control",18.52%
same,JC1 aggregate/JC1 monomer fluorescence intensity ratio (fluorescence microscopy),MDA-MB-231 cells [5]; 8 µM,0.25 ± 0.06
CC(=N\NC(=O)c1ccncc1)/C(C)=N/NC(N)=S [[L ^ 1 H 3 ]Cl] [Diacetyl-2-(Thiosemicarbazone)-3-(Isonicotinichydrazonium) Chloride],IC50,[1]; 24 h,14.1 ± 0.48 µM
same,IC50,PC3; 24 h,3.49 ± 0.73 µM
same,IC50,HepG2; 24 h,6.27 ± 0.98 µM
same,IC50,HeLa,1.49 ± 0.46 µM
same,IC50,MDA-MB-231; 24 h,2.48 ± 0.47 µM
"CC1=[N+]2N=C(N)[S][Sn-2]23([CH3])([CH3])[O]C(c2ccncc2)=N[N+]3=C1C [complex 1, [SnMe2L^1]n]",IC50,[1]; 24 h,15.6 ± 0.73 µM
same,IC50,PC3; 24 h,2.76 ± 0.52 µM
same,IC50,HepG2; 24 h,4.97 ± 0.76 µM
same,IC50,HeLa,2.22 ± 0.54 µM
same,IC50,MDA-MB-231; 24 h,3.54 ± 0.34 µM
"[As] [arsenic, reference compound]","mean fluorescence intensity (MFI), fold change in comparison with the control (H2DCFDA, flow cytometry)","MDA-MB-231 cells [3]; 1 µM, 24 h",4.91 ± 0.05 fold
same,"fold increase of green fluorescence intensity (H2DCFDA, fluorescence microscopy)","MDA-MB-231 cells [3]; positive control, concentration not given",4.28 ± 0.09 fold
"CC(=N\NC(=O)c1ccncc1)/C(C)=N/NC(N)=S [L ^ 1 H 2, Diacetyl-2-(Thiosemicarbazone)-3-(Isonicotinichydrazone)]",IC50,"[1]; Homo sapiens, WI-38, 24 h",10.8 ± 0.96 µM
same,IC50,"PC3; Homo sapiens, PC-3, 24 h",4.86 ± 0.75 µM
same,IC50,"HepG2; Homo sapiens, HepG2, 24 h",5.14 ± 0.52 µM
same,IC50,"HeLa; Homo sapiens, HeLa",1.06 ± 0.21 µM
same,IC50,"MDA-MB-231; Homo sapiens, MDA-MB-231, 24 h",2.42 ± 0.33 µM

# From article PMC11006503, “New Tin (IV) and Organotin (IV) Complexes with a Hybrid Thiosemicarbazone/Hydrazone Ligand: Synthesis, Crystal Structure, and Antiproliferative Activity” (Bioinorganic Chemistry and Applications, 2024)
